Results published in patent publication US7179887B2, “Guinea pig proteinase-activated receptor 4 and its activating peptide” (Ortho-McNeil Pharmaceutical, Inc., priority 2001, dated 2007).
Blank lines part the entries; values can stand above or below the compound they belong to. Residues, ends and D or L forms follow the SMILES beside them. No end group written: not given here.

Experiments:
[1] = test system: guinea pig gel filtered platelets; conditions: Nishikawa et al. (2000); cited from earlier work
[2] = test system: guinea pig gel filtered platelets
Protocol: (§1) Human platelet-rich plasma (PRP) concentrate (Biological Specialties, Inc., Colmar, Pa.) was gel-filtered (Sepharose 2B, Pharmacia, Inc.) in Tyrode's buffer (140 mM NaCl, 2.7 mM KCl, 12 mM NaHCO3, 0.76 mM Na2HPO4, 5.5 mM dextrose, 5.0 mM Hepes, and 2 mg/ml BSA, pH 7.4). Guinea pigs (400–800 g) were anesthetized and blood drawn via an intraarterial catheter. PRP was prepared by centrifugation at 200×g for 10 min. Guinea pig PRP was gel-filtered as above. Gel-filtered platelets were diluted with Tyrode's buffer (143,000 platelets/μl, per well) and 2 mM CaCl2 in a 96-well microtiter plate. Platelet aggregation was initiated by the addition of the guinea pig PAR-4 AP (SFPGQA-NH2, SEQ ID No.:7) peptide. The assay plate was gently mixed constantly. Aggregation was monitored at 0 and 5 min after agonist addition in a microplate reader (Molecular Devices) by optical density at 650 nm (ΔSOFT). Aggregation was calculated as the decrease in optical density between the two measurements. All samples were tested in duplicate wells on the same plate.

[3] = test system: human gel filtered platelets; conditions: for induction of human platelet aggregation / activation of human PAR-4 (in words): human platelets
Protocol: as §1

[4] = test system: human gel filtered platelets; conditions: background statement; cited from earlier work

Compound: GYPGKF-NH2 [murine PAR-4 AP]
- response of guinea pig platelets to activating peptide (literature) [1]: do not respond

- EC50 [2]: 174 ± 14.6 µM
- EC50 [3]: 140 ± 2.5 µM
Compound: C[C@H](NC(=O)[C@H](CCC(N)=O)NC(=O)CNC(=O)[C@@H]1CCCN1C(=O)[C@H](Cc1ccccc1)NC(=O)[C@@H](N)CO)C(N)=O [guinea pig PAR-4 AP, SFPGQA-NH2] (H-SFPGQA-NH2; N-terminus assumed)
- induction of human platelet aggregation / activation of human PAR-4 (in words) [3]: cross-activates human PAR-4

Compound: GYPGQV-NH2 [human PAR-4 AP]
- induction of human platelet aggregation / activation of human PAR-4 (in words) [3]: induced human platelet aggregation

Compound: SFLLRN-NH2 [human PAR-1 AP]
- induction of guinea pig platelet aggregation / response of guinea pig PAR-4 (in words) ([2]; isolated guinea pig platelets): induced guinea pig platelet aggregation
- induction of human platelet aggregation / activation of human PAR-4 (in words) [3]: induced human platelet aggregation
- aggregation of human platelets by exogenous activating peptide (background) [4]: aggregation of human platelets can be reproduced
